Test results from patent publication US10662204B2 (PFIZER INC., priority 2018, dated 2020).
Values belong to the compound of their own block, whether it stands above or below them.

Columns and labels:
[1] = biological target: KRAS G12C (Homo sapiens, UniProt P01116, G12C); assay: Cell Activity Assay: accumulation of GDP-bound KRAS G12C in MIAPaCa-2 cells (Raf-1 RBD capture, MSD readout); type: cell-based; set-up: endogenous in cells; host or cells: MIAPaCa-2; details: 6 hours, assay limit is 30.00
Protocol: Compounds presented in the present invention lead to the accumulation of the GDP bound Ras upon treatment of human cancer cell line.
The accumulation of the GDP-bound KRAS G12C in cellular environment was measured based on the principle that KRAS G12C only binds to its downstream kinase; Raf-1 (MAP Kinase Kinase Kinase), when in its active-GTP bound state. In this state, Ras binded to a domain of Raf-1 kinase referred to as the Ras Binding Domain (RBD).
MIAPaCa-2 cells were grown in RPMI 1640 medium (Gibco 11875) supplemented with 10% fetal bovine serum and 1% penicillin/streptomycin. Cells were seeded in 96-well tissue culture plates at a density of 30,000 cells/well and allowed to attach for 16-24 hours. Test compounds were prepared as a 10 mM stock in DMSO and serially diluted in 100% DMSO using a 3-fold dilution scheme. An intermediate 5× concentrated plate in complete growth medium was made and 25 μl/well was added to the 100 μl of cells for a final concentration of 0.3% DMSO. Each concentration of exemplary compound was tested in duplicate. The negative control wells were cells with control inhibitor at 10 μM, and the positive control wells were cells without drugs, DMSO only. Plates were incubated for 6 hours at 37° C., 5% CO2. Following treatment, cells were washed 3× with ice-cold PBS and 115 μl/well ice-cold 1× Assay/Lysis. Buffer with protease inhibitors was added (25 mM HEPES, pH 7.5, 150 mM NaCl, 1% NP-40, 10 mM MgCl2, 1 mM EDTA, 2% Glycerol). Following lysis samples were frozen at −80° C.
Raf-1 RBD (LJIC-1988A1) was diluted to 100 ng/well in PBS and 5 μl/well was spot coated onto MSD high bind SECTOR plates (L15XB). Plates were incubated at room temperature for 1 hour on an orbital shaker. Plates were washed with PBS/0.05% Tween-20 and 50 μl/well of thawed lysate samples were added, followed by 50 μl of 1% MSD Blocker A in PBS/0.05 Tween-20 (R93BA). Plates were incubated for 1 hour on an orbital shaker and washed with PBS/0.05% Tween-20. 25 μl/well of Anti-pan-Ras Antibody (Cell Biolabs 244003) diluted 1:3000 was added in 1% MSD Blocker A solution and plates were incubated for 1 hour on an orbital shaker and washed with PBS/0.05% Tween-20. SULFO-TAG goat anti-mouse secondary antibody (MSD R32AC) was diluted 1:500 in MSD Blocker A solution and added at 25 μL/well. Plates were incubated for 1 hour on an orbital shaker and washed with PBS/0.05% Tween-20. 150 μl/well of Read Buffer T (MSD R92TC) diluted 1:3 in H2O was added and plates were read on a Meso Scale Discovery Sector Imager S600.
KRAS signal was normalized to maximum inhibition and DMSO control values, and IC50 values were generated using a 4 parameter fit of the dose response curve. The decrease in IC50 reflects that the exemplary compound lead to a higher level of accumulation of GDP-bound KRAS G12C than another exemplary compounds at specific timepoint of treatment of cancer cell line.

[2] = biological target: T1, GDP-loaded KRAS (1-169) G12C, C51S, C80L, C118S (Homo sapiens, UniProt P01116, C118S/C51S/C80L/G12C); assay: Mass Spectrometry Reactivity Assay (MSRA): covalent adduct of compound and KRAS G12C, Percent Modification; type: binding
T1 construct: GDP-loaded KRAS (1-169) G12C, C51S, C80L, C118S
Protocol: Mass Spectrometry Reactivity Assay (MSRA)
Compounds presented in the present invention covalently bind to KRAS G12C using MSRA to detect a covalent adduct of the exemplary compound and KRAS G12C.
GDP-loaded KRAS (1-169) G12C, C51S, C80L, C118S were diluted in the protein assay buffer 25 mM Hepes pH7.5, 200 mM NaCl, 5% glycerol to concentration of 5 μM and 20 μl of protein was transferred into 96-well plate. Initial compound stocks were generated at concentrations 100-fold higher that their desired assay concentrations. See K-Ras(G12C) inhibitors allosterically control GTP affinity and effector interactions; Ostrem J M, Peters U, Sos M L, Wells J A, Shokat K M; Nature. 2013, Nov. 28; 503(7477):548-51.
Exemplary compounds dissolved in DMSO were diluted 100-fold into solution containing 20 μl of 5 μM KRAS protein in the 96-well plate to initiate the reaction. Mosquito (TPP Lab tech) liquid handling robot was used to add compounds to protein solution. Typical final concentration of the compounds was 5 μM or 10 μM. The plates were placed on a shaker for 1 min at RT, sealed and incubated at room temperature for specified time period. 5 μl of reaction mix was added to 10 μl of 0.2% formic acid stop solution and mixed well. Typical end points were 1, 15, 30, and 60 min.
Data were collected using Waters Acquity H-class UPLC system/Xevo G2-XS TOF mass spectrometer. The protein was injected in their liquid phase onto a Bruker Microtrap protein column TR1/15109/03. The following buffers were used to set LC gradient: Buffer A: 0.2% formic acid H2O; B: 0.2% formic acid CAN. The protein was eluted from the column using the following LC Gradient: 0-0.4 min, 10% B to 30% B; 0.4 min-2.4 min, to 90% B, 2.5 min, 10% B, 3 min, 10% B. Initial data analysis was performed using MaxEnt software right after data acquisition.
The standard auto processing function was used to define percentage of unmodified and modified KRAS protein using MexEnt software right after data acquisition. The highest peak was defined as 100% while smaller peak as assigned the number defined by autoprocessing function. The percent of modification corresponding to modified with exemplary compound and unmodified KRAS GDP-loaded KRAS (1-169) G12C, C51S, C80L, C118S were exported to Xcel data analysis software.
The percent of modified protein at the defined concentration of exemplary compound was calculated using the following formula: % mod=Num of modified peak/Sum of modified+unmodified. The resultant value defined as Percent Modification (PM) and an increase in PM reflects that the specific compound is better than other compounds at specified compound concentration at a given time point.

- IC50 [1]: 0.584 µM
- MSRA (% modification) 5.0 μM 0.25 hr ([2]; 5.0 μM compound, 0.25 hr): 73%
- MSRA (% modification) 10 μM 0.25 hr ([2]; 10 μM compound, 0.25 hr): 75%
Structure (SMILES): C=CC(=O)N1CCN(c2nc(N3CC(C)(C#N)C3)nc3c(Oc4c(Cl)c(F)cc5[nH]ncc45)nc(Cl)cc23)CC1 [Example 02G, 1-{4-(4-acryloylpiperazin-1-yl)-6-chloro-8-[(5-chloro-6-fluoro-1H-indazol-4-yl)oxy]pyrido[3,4-d]pyrimidin-2-yl}-3-methylazetidine-3-carbonitrile]

- IC50 [1]: 0.032 µM
- MSRA (% modification) 5.0 μM 0.017 hr ([2]; 5.0 μM compound): 56%
Structure (SMILES): C#CCCN1C[C@@H](OC)[C@H](Oc2nc(N3CCN(C(=O)C=C)CC3)c3ccnc(Oc4c(Cl)c(F)cc5[nH]ncc45)c3n2)C1 [Example 44I, 1-[4-(2-{[(3R,4R)-1-(but-3-yn-1-yl)-4-methoxy-pyrrolidin-3-yl]oxy}-8-[(5-chloro-6-fluoro-1H-indazol-4-yl)oxy]pyrido [3,4-d]pyrimidin-4-yl)piperazin-1-yl]prop-2-en-1-one]

- IC50 [1]: 29.3 µM
- MSRA (% modification) 10 μM 0.50 hr ([2]; 10 μM compound): 23%
Structure (SMILES): C=CC(=O)N1CCN(c2nc(N3CC4(C3)C(=O)NCN4C)nc3c(Oc4c(C)ccc5[nH]ncc45)cccc23)CC1 [Example 18F, 2-{4-(4-acryloylpiperazin-1-yl)-8-[(5-methyl-1H-indazol-4-yl)oxy]quinazolin-2-yl}-5-methyl-2,5,7-triazaspiro[3.4]octan-8-one]

- IC50 [1]: 3.91 µM
- MSRA (% modification) 10 μM 0.50 hr ([2]; 10 μM compound): 34%
Structure (SMILES): C=CC(=O)N1CCN(c2ncnc3c(Oc4c(C)ccc5[nH]ncc45)cc(Cl)cc23)CC1 [Example 12C, 1-(4-{6-chloro-8-[(5-methyl-1H-indazol-4-yl)oxy]quinazolin-4-yl}piperazin-1-yl)prop-2-en-1-one]

- MSRA (% modification) 5.0 μM 0.017 hr ([2]; 5.0 μM compound): 17%
Structure (SMILES): C=CC(=O)N1CCN(c2nc(OC3CN(C)CC34CC4)nc3c(Oc4c(Cl)c(F)cc5[nH]ncc45)nccc23)CC1 (stereo not shown) [Example 26I, 1-(4-{8-[(5-chloro-6-fluoro-1H-indazol-4-yl)oxy]-2-[(5-methyl-5-azaspiro [2.4]heptan-7-yl)oxy]pyrido [3,4-d]pyrimidin-4-yl}piperazin-1-yl)prop-2-en-1-one]

- MSRA (% modification) 10 μM 0.50 hr ([2]; 10 μM compound): 12%
Structure (SMILES): C=CC(=O)N1CCN(c2ncnc3c(Oc4c(Br)ccc5[nH]ncc45)nccc23)CC1 [Example 15C, 1-(4-{8-[(5-bromo-1H-indazol-4-yl)oxy]pyrido[3,4-d]pyrimidin-4-yl}piperazin-1-yl)prop-2-en-1-one]

- MSRA (% modification) 5.0 μM 0.017 hr ([2]; 5.0 μM compound): 14%
Structure (SMILES): C=CC(=O)N1CCN(c2nc(Oc3nn(C)c4c3CCN(C)C4)nc3c(Oc4c(Cl)c(F)cc5[nH]ncc45)nccc23)CC1 [Example 47I, 1-(4-{8-[(5-chloro-6-fluoro-1H-indazol-4-yl)oxy]-2-[(1,6-dimethyl-4,5,6,7-tetrahydro-1H-pyrazolo [3,4-c]pyridin-3-yl)oxy]pyrido [3,4-d]pyrimidin-4-yl}piperazin-1-yl)prop-2-en-1-one]

- MSRA (% modification) 5.0 μM 0.017 hr ([2]; 5.0 μM compound): 15%
Structure (SMILES): C=CC(=O)N1CCN(c2nc(O[C@@H]3CCN(CCOC)C[C@H]3C)nc3c(Oc4c(Cl)c(F)cc5[nH]ncc45)nccc23)CC1 (racemic) [Example 27I, rac-1-[4-(8-[(5-chloro-6-fluoro-1H-indazol-4-yl)oxy]-2-{[(3R,4R)-1-(2-methoxy-ethyl)-3-methyl-piperidin-4-yl]oxy}pyrido [3,4-d]pyrimidin-4-yl)piperazin-1-yl]prop-2-en-1-one]

- MSRA (% modification) 5.0 μM 0.017 hr ([2]; 5.0 μM compound): 7%
Structure (SMILES): C=CC(=O)N1CCN(c2nc(Oc3cc4n(n3)CCN(C)C4)nc3c(Oc4c(Cl)c(F)cc5[nH]ncc45)nccc23)CC1 [Example 45I, 1-(4-{8-[(5-chloro-6-fluoro-1H-indazol-4-yl)oxy]-2-[(5-methyl-4,5,6,7-tetrahydro-pyrazolo [1,5-a]pyrazin-2-yl)oxy]pyrido [3,4-d]pyrimidin-4-yl}piperazin-1-yl)prop-2-en-1-one]

- MSRA (% modification) 10 μM 0.50 hr ([2]; 10 μM compound): 26%
Structure (SMILES): C=CC(=O)N1CCN(c2ncnc3c(Oc4c(Br)ccc5[nH]ncc45)cccc23)CC1 [Example 11C, 1-(4-(8-((5-bromo-1H-indazol-4-yl)oxy)quinazolin-4-yl)piperazin-1-yl)prop-2-en-1-one]

- MSRA (% modification) 5.0 μM 0.017 hr ([2]; 5.0 μM compound): 20%
Structure (SMILES): C=CC(=O)N1CCN(c2nc(O[C@@H]3CN(C)C[C@H]3C)nc3c(Oc4c(Cl)c(F)cc5[nH]ncc45)nccc23)CC1 (racemic) [Example 24I, rac-1-[4-(8-[(5-chloro-6-fluoro-1H-indazol-4-yl)oxy]-2-{[(3S,4R)-1,4-dimethyl-pyrrolidin-3-yl]oxy}pyrido [3,4-d]pyrimidin-4-yl)piperazin-1-yl]prop-2-en-1-one]

- MSRA (% modification) 5.0 μM 0.017 hr ([2]; 5.0 μM compound): 16%
Structure (SMILES): C=CC(=O)N1CCN(c2nc(O[C@@H]3CN(C)C[C@H]3OC)nc3c(Oc4c(Cl)c(F)cc5[nH]ncc45)nccc23)C[C@@H]1C [Example 37I, 1-[(2S)-4-(8-[(5-chloro-6-fluoro-1H-indazol-4-yl)oxy]-2-{[(3R,4R)-4-methoxy-1-methyl-pyrrolidin-3-yl]oxy}pyrido [3,4-d]pyrimidin-4-yl)-2-methyl-piperazin-1-yl]prop-2-en-1-one]

- MSRA (% modification) 5.0 μM 0.017 hr ([2]; 5.0 μM compound): 16%
Structure (SMILES): C=CC(=O)N1CCN(c2nc(O[C@@H]3CCN(C)C[C@H]3C)nc3c(Oc4c(Cl)c(F)cc5[nH]ncc45)nccc23)CC1 (racemic) [Example 29I, rac-1-[4-(8-[(5-chloro-6-fluoro-1H-indazol-4-yl)oxy]-2-{[(3R,4R)-1,3-dimethyl-piperidin-4-yl]oxy}pyrido [3,4-d]pyrimidin-4-yl)piperazin-1-yl]prop-2-en-1-one]

- MSRA (% modification) 5.0 μM 0.017 hr ([2]; 5.0 μM compound): 6%
Structure (SMILES): C=CC(=O)N1CCN(c2nc(O[C@H]3CN(C)C[C@H]3C)nc3c(Oc4c(Cl)c(F)cc5[nH]ncc45)nccc23)CC1 (racemic) [Example 25I, rac-1-[4-(8-[(5-chloro-6-fluoro-1H-indazol-4-yl)oxy]-2-{[(3S,4S)-1,4-dimethyl-pyrrolidin-3-yl]oxy}pyrido [3,4-d]pyrimidin-4-yl)piperazin-1-yl]prop-2-en-1-one]
